Here are results for 18 compounds from ChEMBL document CHEMBL3861993, “Alternative core development around the tetracyclic indole class of HCV NS5A inhibitors” (Bioorg Med Chem Lett, 2016).

Where only a bound is given, the exact number is not on record here.

Series [1] deals with Hepatitis C virus subtype 3a. The series is described as follows: Inhibition of HCV genotype 3a NS5A after 3 day incubation by RT-PCR-cell-based HCV replicon assay. On the technique in general: In antiviral work, replicon cells carry a viral genome segment that copies itself.
Series [2] concerns Hepatitis C virus subtype 2b. The series is described as follows: Inhibition of HCV genotype 2b NS5A harboring methionine at position 31 after 3 day incubation by RT-PCR-cell-based HCV replicon assay.
In series [3] the test system is T1, Nonstructural protein 5A (Hepatitis C virus), Q5L478 [Y93H].
T1 sequence (whole entry): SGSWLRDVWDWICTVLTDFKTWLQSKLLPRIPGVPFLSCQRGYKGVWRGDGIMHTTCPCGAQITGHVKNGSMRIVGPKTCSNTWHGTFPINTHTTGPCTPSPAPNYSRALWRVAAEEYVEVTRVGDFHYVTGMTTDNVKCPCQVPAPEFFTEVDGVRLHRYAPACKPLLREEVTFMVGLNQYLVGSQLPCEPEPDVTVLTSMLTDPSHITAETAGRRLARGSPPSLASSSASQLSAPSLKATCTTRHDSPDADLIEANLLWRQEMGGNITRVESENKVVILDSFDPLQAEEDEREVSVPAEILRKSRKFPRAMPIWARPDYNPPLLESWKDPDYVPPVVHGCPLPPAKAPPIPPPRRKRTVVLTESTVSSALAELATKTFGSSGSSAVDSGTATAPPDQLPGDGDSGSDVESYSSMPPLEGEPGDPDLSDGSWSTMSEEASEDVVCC
The series is described as follows: Inhibition of HCV genotype 1a NS5A Y93H mutant after 3 day incubation by RT-PCR-cell-based HCV replicon assay. As to conditions: Hepatitis C virus subtype 1a.

Series [4] relates to Nonstructural protein 5A (Hepatitis C virus), Q5L478 [UNDEFINED MUTATION]. The series is described as follows: Inhibition of HCV genotype 1a NS5A L31V mutant after 3 day incubation by RT-PCR-cell-based HCV replicon assay. Conditions: Hepatitis C virus subtype 1a.
For series [5], the system named is Hepatitis C virus subtype 1a. The series is described as follows: Inhibition of HCV genotype 1a NS5A after 3 day incubation by RT-PCR-cell-based HCV replicon assay.
Series [6] relates to Hepatitis C virus subtype 4a. The series is described as follows: Inhibition of HCV genotype 4a NS5A after 3 day incubation by RT-PCR-cell-based HCV replicon assay.
Series [7] in a line: Oral bioavailability in rat at 10 mg/kg. Conditions: in vivo. Format: ADME, organism-based.
A short description of series [8]: AUC in rat at 3 mg/kg, iv or 10 mg/kg, po. The format is ADME, organism-based. Conditions: in vivo.
A short description of series [9]: Clearance in rat at 2.5 mg/kg, iv or 5 mg/kg, po. The format is ADME, organism-based. As to conditions: in vivo.
The nature of series [10]: Half life in rat at 2.5 mg/kg, iv or 5 mg/kg, po. Format: ADME, organism-based. As to conditions: in vivo.
Series [11] in a line: Cmax in rat at 2.5 mg/kg, iv or 5 mg/kg, po. Format: ADME, organism-based. As to conditions: in vivo.
A short description of series [12]: AUC in rat at 5 mg/kg, po. The format is ADME, organism-based. As to conditions: in vivo.
A short description of series [13]: Oral bioavailability in rat at 5 mg/kg. Format: ADME, organism-based. Conditions: in vivo.
A short description of series [14]: Clearance in rat at 2 mg/kg, iv or 10 mg/kg, po. Format: ADME, organism-based. As to conditions: in vivo.
Series [15] in a line: Half life in rat at 2 mg/kg, iv or 10 mg/kg, po. The format is ADME, organism-based. As to conditions: in vivo.
A short description of series [16]: Cmax in rat at 2 mg/kg, iv or 10 mg/kg, po. Format: ADME, organism-based. Conditions: in vivo.
Series [17] can be described thus: AUC in rat at 10 mg/kg, po. The format is ADME, organism-based. Conditions: in vivo.

What is called EC90 is the concentration at which the effect reaches the 90% level. Higher therefore signals weaker potency. As usually defined, the bioavailability is dose-corrected exposure relative to a reference, in per cent. High values mean much systemic uptake, low ones little systemic uptake. Usually AUC stands for the area under the concentration-time curve, a measure of exposure. The half-life is the time needed for the level to fall by half in the phase considered. The term Cmax denotes the maximum level reached in the sampled fluid or tissue.

For the compound `COC(=O)N[C@H](C(=O)N1CCC[C@H]1c1ncc(-c2ccc3c(c2)OC(c2cccc(OC)c2)C2=C3COc3cc(-c4cnc([C@@H]5CCCN5C(=O)[C@@H](NC(=O)OC)C(C)C)[nH]4)ccc32)[nH]1)C(C)C` (stereo not given in full), the EC90 in series [1] worked out at 1.93 nM; in series [2], 4.7 nM; in series [3], 12 nM; in series [4], 0.3 nM; in series [5], 0.039 nM.
As to `COC(=O)N[C@H](C(=O)N1CCC[C@H]1c1ncc(-c2ccc3c(c2)OC(C)C2=C3COc3cc(-c4cnc([C@@H]5CCCN5C(=O)[C@@H](NC(=O)OC)C(C)C)[nH]4)ccc32)[nH]1)C(C)C` (stereo not given in full), the EC90 in series [2] worked out at 28.1 nM; in series [3], 55.1 nM; in [4] it was 1.52 nM; in [5] it was 0.028 nM.
For the compound `COC(=O)N[C@H](C(=O)N1CCC[C@H]1c1ncc(-c2ccc3c(c2)Oc2ccc(-c4cnc([C@@H]5CCCN5C(=O)[C@@H](NC(=O)OC)C(C)C)[nH]4)c4c2N3CCC4)[nH]1)C(C)C`, the EC90 in [6] was 4.81 nM; in series [1], more than 10 nM; in series [2] it was 100 nM; in [3] it was 441 nM; in [4] it was 100 nM; in series [5], more than 0.1 nM.
As for `COC(=O)N[C@H](C(=O)N1CCC[C@H]1c1ncc(-c2ccc3c(c2)Oc2ccc(-c4cnc([C@@H]5CCCN5C(=O)[C@@H](NC(=O)OC)C(C)C)[nH]4)c4c2N3CC4)[nH]1)C(C)C`, the EC90 is 8.17 nM in series [6]; 4.42 nM in [1]; 685 nM in series [3]; 100 nM in series [4]; more than 0.1 nM in series [5].
For the compound `COC(=O)N[C@H](C(=O)N1CCC[C@H]1c1ncc(-c2ccc3c(c2)OC(c2ccccc2)C2=C3COc3cc(-c4cnc([C@@H]5CCCN5C(=O)[C@@H](NC(=O)OC)C(C)C)[nH]4)ccc32)[nH]1)C(C)C` (stereo not given in full), the EC90 is 0.17 nM in [6]; 0.56 nM in series [1]; 8.46 nM in series [2]; more than 100 nM in [3]; 0.28 nM in series [4]; 0.017 nM in series [5].
Take `COC(=O)N[C@H](C(=O)N1CCC[C@H]1c1ncc(-c2cc3c4c(c2)CCc2cc(-c5cnc([C@@H]6C[C@@H](F)CN6C(=O)[C@@H](NC(=O)OC)C(C)C)[nH]5)cc(c2-4)CC3)[nH]1)C(C)C`: the EC90 was 5.5 nM in series [6]; 6 nM in series [1]; more than 100 nM in series [2]; 22.7 nM in [3]; 26.2 nM in series [4]; 0.052 nM in series [5].
`COC(=O)N[C@H](C(=O)N1CCC[C@H]1c1ncc(-c2ccc3c(c2)Oc2ccc(-c4cnc([C@@H]5CC(F)(F)CN5C(=O)[C@@H](NC(=O)OC)C(C)C)[nH]4)c4ccn-3c24)[nH]1)C(C)C`: the EC90 in series [2] was 342 nM; in series [3], 22 nM; in [4], 17.2 nM; in series [5], 0.02 nM. The compound also displayed a bioavailability in series [7] of 15%. In [8], this compound came in with an AUC of 3.98 µM·h.
Consider `COC(=O)N[C@H](C(=O)N1CCC[C@H]1c1ncc(-c2ccc3c(c2)Oc2ccc(-c4cnc([C@@H]5CCCN5C(=O)[C@@H](NC(=O)OC)C(C)C)[nH]4)c4occ-3c24)[nH]1)C(C)C`, for which the clearance in series [9] is 8.5 mL/min/kg. In series [10], this compound had a half-life of 1.9 h. In series [11], the peak concentration (Cmax) worked out at 830 nM. The same compound showed an AUC in series [12] of 4.28 µM·h. Besides, the EC90 is 0.31 nM in series [6]; 0.32 nM in [1]; 100 nM in series [2]; 132 nM in series [3]; 100 nM in [4]; 0.03 nM in [5]. In [13], this compound gave a bioavailability of 34%.
With `COC(=O)N[C@H](C(=O)N1CCC[C@H]1c1ncc(-c2ccc3c(c2)Oc2ccc(-c4cnc([C@@H]5CCCN5C(=O)[C@@H](NC(=O)OC)C(C)C)[nH]4)c4c2N3CCO4)[nH]1)C(C)C`, the EC90 in series [6] was 2.48 nM; in series [1], 4.69 nM; in series [2], 100 nM; in series [3], 361 nM; in series [4], 100 nM; in series [5], 0.005 nM.
In series [14], `COC(=O)N[C@H](C(=O)N1CCC[C@H]1c1ncc(-c2ccc3c(c2)OCC2=C3COc3cc(-c4cnc([C@@H]5CCCN5C(=O)[C@@H](NC(=O)OC)C(C)C)[nH]4)ccc32)[nH]1)C(C)C` came in with a clearance of 5.3 mL/min/kg. The half-life in series [15] was 2.7 h. Moreover, the peak level in series [16] (Cmax) was 660 nM. For the same compound, the AUC in series [17] was 5.57 µM·h. The EC90 in [6] is 0.18 nM; in series [1] it was more than 1 nM; in series [2], 24.7 nM; in [3], more than 100 nM; in [4] it was 0.33 nM; in series [5], 0.01 nM. The same compound came in with a bioavailability in series [7] of 14%.
As to `COC(=O)N[C@H](C(=O)N1CCC[C@H]1c1ncc(-c2ccc3c(c2)OCn2c-3cc3cc(-c4cnc([C@@H]5CCCN5C(=O)[C@@H](NC(=O)OC)C(C)C)[nH]4)ccc32)[nH]1)C(C)C`, the EC90 is 0.18 nM in series [6]; more than 1 nM in [1]; 75.7 nM in series [2]; more than 100 nM in series [3]; 6.5 nM in [4]; 0.02 nM in series [5].
Take `COC(=O)N[C@H](C(=O)N1CCC[C@H]1c1ncc(-c2cc3c4c(c2)CCc2cc(-c5cnc([C@@H]6CC(F)(F)CN6C(=O)[C@@H](NC(=O)OC)C(C)C)[nH]5)cc(c2-4)CC3)[nH]1)C(C)C`: the EC90 was 0.6 nM in series [6]; more than 10 nM in series [1]; more than 100 nM in series [2]; 30.2 nM in series [3]; 20.7 nM in series [4]; 0.07 nM in [5].
For `COC(=O)N[C@H](C(=O)N1CCC[C@H]1c1ncc(-c2ccc3c(c2)Oc2ccc(-c4cnc([C@@H]5CCCN5C(=O)[C@@H](NC(=O)OC)C(C)C)[nH]4)c4cnn-3c24)[nH]1)C(C)C`, the EC90 in series [6] was 0.76 nM; in series [1], 1.59 nM; in [2], 100 nM; in series [3] it was 124 nM; in series [4], 62.3 nM; in [5], 0.04 nM.
Take `COC(=O)N[C@H](C(=O)N1CCC[C@H]1c1ncc(-c2ccc3c(c2)OC(C2CC2)C2=C3COc3cc(-c4cnc([C@@H]5CCCN5C(=O)[C@@H](NC(=O)OC)C(C)C)[nH]4)ccc32)[nH]1)C(C)C` (stereo not given in full): the EC90 in series [1] is 10.7 nM; in series [2] it was 5.2 nM; in series [3], 41 nM; in series [4], 1.7 nM; in series [5], 0.063 nM.
For `COC(=O)N[C@H](C(=O)N1CCC[C@H]1c1ncc(-c2ccc3c(c2)Oc2ccc(-c4cnc([C@@H]5CCCN5C(=O)[C@@H](NC(=O)OC)C(C)C)[nH]4)c4ccn-3c24)[nH]1)C(C)C`, the EC90 was determined as 0.31 nM in series [6]; 0.69 nM in series [1]; 122 nM in series [3]; 90.2 nM in [4]; 0.06 nM in series [5].
Take `COC(=O)N[C@H](C(=O)N1CCC[C@H]1c1ncc(-c2ccc3c(c2)OCc2c-3c(=O)oc3cc(-c4cnc([C@@H]5CCCN5C(=O)[C@@H](NC(=O)OC)C(C)C)[nH]4)ccc23)[nH]1)C(C)C`: the EC90 in series [6] was 0.18 nM; in series [1], more than 1 nM; in series [2] it was 113 nM; in series [3], more than 50 nM; in series [4], 58.6 nM; in series [5], 0.01 nM.
In the case of `COC(=O)N[C@H](C(=O)N1CCC[C@H]1c1ncc(-c2cc3c4c(c2)CCc2cc(-c5cnc([C@@H]6CCCN6C(=O)[C@@H](NC(=O)OC)C(C)C)[nH]5)cc(c2-4)CC3)[nH]1)C(C)C`, the EC90 is 0.8 nM in series [6]; 2 nM in series [1]; more than 100 nM in [2]; 57 nM in [3]; 18.9 nM in [4]; 0.05 nM in [5].
For `COC(=O)N[C@H](C(=O)N1CCC[C@H]1c1nc(-c2ccc3c(c2)O[C@@H](c2ccccc2)n2c-3cc3cc(-c4c[nH]c([C@@H]5CCCN5C(=O)[C@@H](NC(=O)OC)C(C)C)n4)ccc32)c[nH]1)C(C)C`, the EC90 in series [6] is 0.016 nM; in series [1] it was 0.12 nM; in series [2], 11 nM; in [5], 0.006 nM.
